Source: patent US20250092065A1, “2-(INDAZOL-5-YL)-6-(PIPERIDIN-4-YL)-1,7-NAPHTHYRIDINE DERIVATIVES AND RELATED COMPOUNDS AS MODULATORS FOR SPLICING NUCLEIC ACIDS AND FOR THE TREATMENT OF PROLIFERATIVE DISEASES” (REMIX THERAPEUTICS INC., priority 2022, published 2025)
Read-outs that look alike come from different tables or passages of the source.

Tests used:
MYB mRNA = assay: RT-qPCR splicing assay, MYB mRNA canonical (CJ) and alternative (AJ) junction; assay type: cell-based, human; conditions: Homo sapiens; for AC50: MYB alternative junction mRNA, read-out: MYB AJ (increase in AJ mRNA, AC50)
Method in brief: (§1)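 Splice switching quantified in compound-treated A673/K562 cells after 24 h exposure (top dose 10 uM, 3-fold steps, ≤0.25% DMSO), using CJ and AJ qPCR assays run at least in duplicate. RQ derived by 2^(−ΔΔCt), then percentage response.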

HTT mRNA = assay: RT-qPCR splicing assay, HTT mRNA canonical (CJ) and alternative (AJ) junction; assay type: cell-based, human; conditions: Homo sapiens; for AC50: HTT alternative junction mRNA, read-out: HTT AJ (increase in AJ mRNA, AC50)
Method in brief: as §1

SMN2 mRNA = assay: RT-qPCR splicing assay, SMN2 mRNA; assay type: cell-based, human; conditions: Homo sapiens, canonical junction qPCR panel, Table 4; read-out: SMN2 IC50 (decrease in CJ mRNA levels)
Method in brief: as §1

K562 cells = assay: Cell Titer Glo 2.0 cell viability (toxicity) assay, K562; conditions: 500 cells/well, 72 hours
HTT = assay: HiBiT protein abundance assay, HTT (K562 HiBiT knock-in); assay type: cell-based, human; conditions: HiBiT knock-in K562 cells, 24 hours, top dose 10 μM
Method in brief: (§2)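 Luminescence readout: Nano-Glo HiBiT lytic detection after 24 h compound exposure of K562 HiBiT knock-in cells, 10000 cells/well. Dosing 10-pt, 3-fold, top 10 μM final. % response vs untreated parental K562 and DMSO controls; 4PL fit, IC50 = concentration giving 50% protein abundance.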

MYB = assay: HiBiT protein abundance assay, MYB (K562 HiBiT knock-in); assay type: cell-based, human; conditions: HiBiT knock-in K562 cells, 24 hours, top dose 10 μM
Method in brief: as §2

Target C = assay: HiBiT protein abundance assay, Target C (K562 HiBiT knock-in); assay type: cell-based, human; conditions: HiBiT knock-in K562 cells, 24 hours, top dose 10 μM
Method in brief: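 K562 HiBiT knock-in cells (10000/well) were treated 24 h at 37° C with a 10-point 3-fold dilution series (top 10 μM final, ≤0.25% DMSO). HiBiT luminescence was read after lytic LgBiT detection. Percent response used unmodified K562 and DMSO-treated knock-in controls, and IC50 came from a four-parameter fit at 50% of untreated.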

[1] = MYB canonical junction mRNA, RT-qPCR, read-out: MYB CJ (decrease in CJ mRNA levels, IC50)
[2] = canonical junction qPCR panel, Table 4, read-out: MYB IC50 (decrease in CJ mRNA levels)
[3] = HTT canonical junction mRNA, RT-qPCR, read-out: HTT CJ (decrease in CJ mRNA levels, IC50)
[4] = canonical junction qPCR panel, Table 4, read-out: HTT IC50 (decrease in CJ mRNA levels)

Row | Structure (SMILES) | AC50 (MYB mRNA; RT-qPCR) [µM] | IC50 (MYB mRNA; [1]) [µM] | IC50 (MYB mRNA; [2]) [µM] | AC50 (HTT mRNA; RT-qPCR) [µM] | IC50 (HTT mRNA; [3]) [µM] | IC50 (HTT mRNA; [4]) [µM] | IC50 (SMN2 mRNA) [µM] | Effect of Exemplary Compounds on Cell Viability, K562 (K562 cells) | IC50 (HTT) [µM] | IC50 (MYB) [µM] | IC50 (Target C) [µM]
1 | CCNC1CCN(c2ccc3nc(-c4cc5cn(C)nc5cc4O)ccc3n2)CC1 [Compound 131] | 1 to 10 | 1 to 10 | 1 to 10 | > 10 | 1 to 10 | 1 to 10 | < 0.1 | B (B represents 100-1000 nM) | 1 to 10 | 1 to 10 | 1 to 10
2 | Cn1cc2cc(-c3ccc4nc(N5CCC(NC(C)(C)C)CC5)ccc4n3)c(O)cc2n1 [Compound 132] | > 10 | > 10 | > 10 | > 10 | > 10 | > 10 | > 10 | C (C represents 1000-9999 nM) | > 10 | > 10 | > 10
3 | CN(C)C1CCN(c2ccc3nc(-c4cc5cn(C)nc5cc4O)ccc3n2)CC1 [Compound 133] | 0.1 to 1 | 1 to 10 | 1 to 10 | 1 to 10 | 1 to 10 | 1 to 10 | < 0.1 | B (B represents 100-1000 nM) | 1 to 10 | 1 to 10 | 1 to 10
4 | Cn1cc2cc(-c3ccc4nc(N5CCNCC5)ccc4n3)c(O)cc2n1 [Compound 136] | 0.1 to 1 | 0.1 to 1 | 0.1 to 1 | 1 to 10 | 1 to 10 | 1 to 10 | < 0.1 | B (B represents 100-1000 nM) | 0.1 to 1 | 0.1 to 1 | 0.1 to 1
5 | C[C@@H]1CC(c2ccc3nc(-c4cc5cn(C)nc5cc4O)ccc3n2)C[C@H](C)N1 (stereo partly drawn) [Compound 137] | 0.1 to 1 | 0.1 to 1 | 0.1 to 1 | 1 to 10 | 0.1 to 1 | 0.1 to 1 | < 0.1 | B (B represents 100-1000 nM) | 0.1 to 1 | 0.1 to 1 | 0.1 to 1
6 | CCN1CCC(c2ccc3nc(-c4cc5cn(C)nc5cc4O)ccc3n2)CC1 [Compound 138] | 0.1 to 1 | 0.1 to 1 | 0.1 to 1 | 0.1 to 1 | 0.1 to 1 | 0.1 to 1 | < 0.1 | B (B represents 100-1000 nM) | 0.1 to 1 | 0.1 to 1 | 0.1 to 1
7 | C[C@H]1C[C@H](c2ccc3nc(-c4cc5cn(C)nc5cc4O)ccc3n2)CCN1 [Compound 139] | < 0.1 | < 0.1 | < 0.1 | < 0.1 | < 0.1 | < 0.1 | < 0.1 | B (B represents 100-1000 nM) | 0.1 to 1 | 0.1 to 1 | < 0.1
8 | C[C@H]1C[C@@H](c2ccc3nc(-c4cc5cn(C)nc5cc4O)ccc3n2)CCN1 [Compound 140] | 0.1 to 1 | < 0.1 | < 0.1 | 0.1 to 1 | < 0.1 | < 0.1 | < 0.1 | B (B represents 100-1000 nM) | 0.1 to 1 | 0.1 to 1 | 0.1 to 1
9 | Cn1cc2c(O)c(-c3cc4ccc(C5CCNCC5)nc4cn3)cc(Br)c2n1 [Compound 141] | 1 to 10 | 0.1 to 1 | 0.1 to 1 | 1 to 10 | 1 to 10 | 1 to 10 | 0.1 to 1 | C (C represents 1000-9999 nM) | 1 to 10 | 1 to 10 | 1 to 10
10 | CN1CCC(c2ccc3nc(-c4cc5cn(C)nc5cc4O)ccc3n2)CC1 [Compound 142] | 0.1 to 1 | 0.1 to 1 | 0.1 to 1 | 0.1 to 1 | 0.1 to 1 | 0.1 to 1 | < 0.1 | B (B represents 100-1000 nM) | 0.1 to 1 | 0.1 to 1 | 0.1 to 1
11 | COc1cc2nn(C)cc2cc1-c1ccc2c(F)c(C3CCNCC3)ccc2n1 [Compound 143] | > 10 | > 10 | > 10 | > 10 | > 10 | > 10 | > 10 | B (B represents 100-1000 nM) | > 10 | > 10 | 1 to 10
12 | Cn1cc2cc(-c3ccc4cc(C5CCNCC5)c(F)cc4n3)c(O)cc2n1 [Compound 144] | > 10 | > 10 | > 10 | > 10 | > 10 | > 10 | > 10 | D (D represents greater than 10 μM in K562 cells) | > 10 | > 10 | > 10
13 | COc1cc2nn(C)cc2cc1-c1ccc2cc(C3CCNCC3)c(F)cc2n1 [Compound 145] | > 10 | > 10 | > 10 | > 10 | > 10 | > 10 | > 10 | D (D represents greater than 10 μM in K562 cells) | > 10 | > 10 | > 10
14 | Cn1cc2cc(O)c(-c3ccc4nc(C5CCNCC5)ccc4n3)cc2n1 [Compound 146] | 1 to 10 | 1 to 10 | 1 to 10 | 1 to 10 | 1 to 10 | 1 to 10 | 0.1 to 1 | C (C represents 1000-9999 nM) | 1 to 10 | 1 to 10 | 1 to 10
15 | Cc1nc2cc(O)c(-c3ccc4nc(C5CCNCC5)ccc4n3)cc2s1 [Compound 148] | 0.1 to 1 | 0.1 to 1 | 0.1 to 1 | 1 to 10 | 1 to 10 | 1 to 10 | < 0.1 | B (B represents 100-1000 nM) | 1 to 10 | 1 to 10 | 1 to 10
